The values that follow come from article PMC10406450 (Frontiers in Endocrinology, 2023).

The subject of this data set is CHO-hGLP-1R cells. The experiment in a line: Cell viability assay (resazurin). As to conditions: 48 h treatment, then 5 h resazurin dye, fluorescence 590 nm, concentrations up to 1000-fold above the EC50, 3 independent experiments. It counts as cell-based, Chinese hamster. Background: The colour change of resazurin is a common sign of viable cells or microbes.

Experimental: CHO-hGLP-1R cells described above were plated at 10 000 cells per well in 96-well black clear-bottom poly-d-lysine-coated microtiter plates (Corning, USA). Growth medium comprised DMEM supplemented with 10% FBS (Sigma-Aldrich). […] Fluorescence emission was measured at 590 nm (560 nm excitation) using an Envision plate reader (Perkin Elmer, USA).

With `CN[C@@H]1C[C@H]2O[C@@](C)([C@@H]1OC)n1c3ccccc3c3c4c(c5c6ccccc6n2c5c31)C(=O)NC4` [staurosporine], the “cytotoxicity (cell viability)” value is on record as “expected effect on loss of cell viability”.
